ChEMBL document CHEMBL5608168, “An overview of PROTACs targeting MDM2 as a novel approach for cancer therapy” (Eur J Med Chem, 2024)

How the values were obtained:
[1] = molecular target: E3 ubiquitin-protein ligase Mdm2 (Homo sapiens, UniProt Q00987); assay: Homo-PROTAC activity at MDM2 in human A549 cells assessed as self ubiquitination mediated protein degradation by Western Blot analysis; format: cell-based
A549 [2] = assay: Induction of apoptosis in human A549 cells assessed as apoptotic rate at 5 uM incubated for 24 hrs by Annexin V-FITC staining based flow cytometry relative to control; format: functional
MOLM-13 = assay: Antiproliferative activity against human MOLM-13 assessed as reduction in cell viability; format: functional, cell-based
[3] = Antiproliferative activity against human derived Acute myeloid leukemic cells assessed as reduction in cell viability incubated for 48 hr by CellTiter-Glo assay; format: functional, cell-based; details: Leukemia cell
A549 [4] = assay: Anticancer activity against human A549 cells assessed as reduction in cell growth incubated for 72 hrs by CCK-8 assay; format: functional, cell-based; details: A549, 72 h
[5] = Terminal half life in Sprague-Dawley rat at 2 mg/kg, iv by LC-MS/MS analysis; format: ADME, organism-based; details: in vivo
A549 [6] = assay: Antitumor activity against human A549 cells xenografted in BALB/c nude mouse assessed as tumor growth inhibition at 30 mg/kg, ip administered twice daily for 21 days relative to control; format: functional; details: A549, 504 h, time 21 day, read-out: TGI
[7] = Metabolic stability in mouse liver microsomes assessed as half life; format: ADME, Microsome
[8] = Antiproliferative activity against human Triple-negative breast cancer cell; format: functional, cell-based; details: Breast carcinoma cell

E3 ubiquitin-protein ligase Mdm2, sequence (Q00987 whole entry): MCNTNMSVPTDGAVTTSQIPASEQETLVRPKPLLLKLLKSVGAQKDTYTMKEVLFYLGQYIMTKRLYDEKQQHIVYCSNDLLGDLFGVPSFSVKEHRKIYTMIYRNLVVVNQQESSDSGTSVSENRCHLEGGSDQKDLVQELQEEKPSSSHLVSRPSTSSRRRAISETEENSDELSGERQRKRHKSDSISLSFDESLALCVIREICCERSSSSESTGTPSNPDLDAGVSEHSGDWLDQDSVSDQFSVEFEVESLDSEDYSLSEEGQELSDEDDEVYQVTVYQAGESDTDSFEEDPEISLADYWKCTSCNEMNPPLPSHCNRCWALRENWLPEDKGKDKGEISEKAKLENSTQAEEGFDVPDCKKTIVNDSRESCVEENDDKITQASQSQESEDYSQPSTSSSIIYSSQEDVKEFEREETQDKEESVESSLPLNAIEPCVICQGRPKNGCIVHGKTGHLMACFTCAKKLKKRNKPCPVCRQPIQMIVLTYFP

In the case of CCOc1cc(C(C)(C)C)ccc1C1=NC(c2ccc(Cl)cc2)C(c2ccc(Cl)cc2)N1C(=O)N1CCN(CC(=O)NCCOCCOCCOCCNC(=O)CN2CCN(C(=O)N3C(c4ccc(C(C)(C)C)cc4OCC)=NC(c4ccc(Cl)cc4)C3c3ccc(Cl)cc3)CC2=O)C(=O)C1 (racemic), the DC50 [1] is reported as 1010 nM.
With C[C@H]1[C@H](C)CC[C@]2(C(=O)NCCOCCOCCOCCNc3cccc4c3C(=O)N(C3CCC(=O)NC3=O)C4=O)CC[C@]3(C)C(=CC[C@@H]4[C@@]5(C)CC[C@H](O)C(C)(C)[C@@H]5CC[C@]43C)[C@H]12 (some centres undefined) the Activity (A549 [2]) was 26.74%.
In the case of Cc1ncsc1-c1ccc(CNC(=O)[C@@H]2C[C@@H](O)CN2C(=O)[C@@H](NC(=O)CCCCCCCCC(=O)N2CCN(S(=O)(=O)C[C@@H](N3C(=O)[C@@](C)(CC(=O)O)C[C@H](c4cccc(Cl)c4)[C@H]3c3ccc(Cl)cc3)C(C)(C)C)CC2)C(C)(C)C)cc1, the IC50 (MOLM-13) is reported as 50 nM and the IC50 [3] is reported as 40 nM.
For CCOc1cc(C(C)(C)C)ccc1C1=N[C@@H](c2ccc(Cl)cc2)[C@@H](c2ccc(Cl)cc2)N1C(=O)N1CCN(CC(=O)NCCOCCOCCOCCNC(=O)CN2CCN(C(=O)N3C(c4ccc(C(C)(C)C)cc4OCC)=N[C@@H](c4ccc(Cl)cc4)[C@H]3c3ccc(Cl)cc3)CC2=O)C(=O)C1, the IC50 (A549 [4]) was 580 nM, the “beta t1/2” value [5] was 576 min and the inhibition in vivo at 30 mg/kg (A549 [6]) was 52.4%.
CCOc1cc(C(C)(C)C)ccc1C1=N[C@@](C)(c2ccc(Cl)cc2)[C@@](C)(c2ccc(Cl)cc2)N1C(=O)N1CCN(CC(=O)NCCOCCOCCOCC(=O)N[C@H](C(=O)N2C[C@H](O)C[C@H]2C(=O)NCc2ccc(-c3scnc3C)cc2)C(C)(C)C)CC1 gave a half-life [7] of 25.9 min and an IC50 [8] of 4000 nM.
